# Results reported in US20220089575A1, “FARNESOID X RECEPTOR AGONISTS AND USES THEREOF” (Metacrine, Inc., priority 2017, published 2022).
# Target: T1, hFXR (Homo sapiens, UniProt Q96RI1)
# T1 construct: expressed in transfected cells; host or cells: CV-1 cells
# T1 sequence (Q96RI1 1-486): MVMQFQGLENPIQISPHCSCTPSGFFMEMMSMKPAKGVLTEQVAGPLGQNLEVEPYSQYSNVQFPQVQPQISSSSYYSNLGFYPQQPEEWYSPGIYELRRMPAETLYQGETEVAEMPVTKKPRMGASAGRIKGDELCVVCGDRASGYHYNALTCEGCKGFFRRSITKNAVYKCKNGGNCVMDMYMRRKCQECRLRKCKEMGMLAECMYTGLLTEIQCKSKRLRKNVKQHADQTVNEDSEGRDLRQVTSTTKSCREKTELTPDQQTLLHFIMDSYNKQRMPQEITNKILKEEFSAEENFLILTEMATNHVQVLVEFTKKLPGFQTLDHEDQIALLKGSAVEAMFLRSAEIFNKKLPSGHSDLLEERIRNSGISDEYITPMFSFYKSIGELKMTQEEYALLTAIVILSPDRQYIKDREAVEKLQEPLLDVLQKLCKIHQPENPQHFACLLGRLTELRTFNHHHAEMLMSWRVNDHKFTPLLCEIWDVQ
# T1 sequence (P19793 1-462 partner): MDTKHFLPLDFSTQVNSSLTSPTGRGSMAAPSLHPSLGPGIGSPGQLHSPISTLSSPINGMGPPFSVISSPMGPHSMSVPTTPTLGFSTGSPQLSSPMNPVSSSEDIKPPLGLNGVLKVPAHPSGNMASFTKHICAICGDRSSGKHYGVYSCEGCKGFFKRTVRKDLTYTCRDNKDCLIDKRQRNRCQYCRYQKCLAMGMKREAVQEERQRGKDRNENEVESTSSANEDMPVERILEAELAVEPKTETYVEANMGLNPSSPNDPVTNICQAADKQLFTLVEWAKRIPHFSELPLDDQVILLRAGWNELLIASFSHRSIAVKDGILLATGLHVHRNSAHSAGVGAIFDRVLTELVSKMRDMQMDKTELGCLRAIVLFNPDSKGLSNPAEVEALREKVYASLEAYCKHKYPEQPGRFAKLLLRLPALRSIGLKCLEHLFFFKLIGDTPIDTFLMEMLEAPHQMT
# Assay: In Vitro FXR Assay (TK): TK-ECRE-luc reporter in transfected CV-1 cells
# Assay type: cell-based
# Conditions: 18 hrs, luminescence, maximum efficacy of <25% of the Fexarmine control classified as '+'
# How it was run: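 Luciferase luminescence read-out from lysed CV-1 cells transiently co-expressing hFXR and hRXR with a TK-ECRE-luc reporter (pCMX-YFP co-transfected). Compound exposure lasted 18 h at 37 °C, 5% CO2, in medium containing charcoal super-stripped serum.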
row,Structure (SMILES),EC50 [nM]
1,"COc1ccc([C@H]2CC[C@H](CN(c3cccc(-c4cnn(C5CC5)c4)c3)C(=O)[C@H]3CC[C@H](NC(=O)COCCCO)CC3)CC2)cc1C [Compound 32, trans-N-(3-(1-Cyclopropyl-1H-pyrazol-4-yl)phenyl)-4-(2-(3-hydroxypropoxy)acetamido)-N-((trans-4-(4-methoxy-3-methylphenyl)cyclohexyl)methyl)cyclohexanecarboxamide]",≤ 250
2,"COc1ccc([C@H]2CC[C@H](CN(c3cccc(-c4coc(C5CC5)n4)c3)C(=O)[C@H]3CC[C@H](OC(=O)N4CC(O)C4)CC3)CC2)nc1C#N [Compound 7.70, trans-4-(((trans-4-(6-Cyano-5-methoxypyridin-2-yl)cyclohexyl)methyl)(3-(2-cyclopropyloxazol-4-yl)phenyl)carbamoyl)cyclohexyl 3-hydroxyazetidine-1-carboxylate]",≤ 250
3,"COc1ccc([C@H]2CC[C@H](CN(c3cccc(-c4cnn(C(C)C)c4)c3)C(=O)[C@H]3CC[C@H](OC(=O)N4CC(O)C4)CC3)CC2)cc1C#N [Compound 7.20, trans-4-(((trans-4-(3-Cyano-4-methoxyphenyl)cyclohexyl)methyl)(3-(1-isopropyl-1H-pyrazol-4-yl)phenyl)carbamoyl)cyclohexyl 3-hydroxyazetidine-1-carboxylate]",≤ 250
4,"COc1ccc([C@H]2CC[C@H](CN(c3cccc(-c4cnn(C(C)C)c4)c3)C(=O)[C@H]3CC[C@H](OC(=O)N4CC(O)C4)CC3)CC2)nc1C [Compound 7.15, trans-4-((3-(1-Isopropyl-1H-pyrazol-4-yl)phenyl)((trans-4-(5-methoxy-6-methylpyridin-2-yl)cyclohexyl)methyl)carbamoyl)cyclohexyl 3-hydroxyazetidine-1-carboxylate]",≤ 250
5,"COc1ccc([C@H]2CC[C@H](CN(c3cccc(-c4cnn(C5CC5)c4)c3)C(=O)[C@H]3CC[C@H](OC(=O)NC(C)C)CC3)CC2)cc1C [Compound 4.05, trans-4-((3-(1-Cyclopropyl-1H-pyrazol-4-yl)phenyl)((trans-4-(4-methoxy-3-methylphenyl)cyclohexyl)methyl)carbamoyl)cyclohexyl isopropylcarbamate]",≤ 250
6,"COc1ccc([C@H]2CC[C@H](CN(c3cccc(-c4cnn(C(C)C)c4)c3)C(=O)[C@H]3CC[C@H](OC(=O)N4CC(CO)C4)CC3)CC2)nc1C [Compound 7.61, trans-4-((3-(1-Isopropyl-1H-pyrazol-4-yl)phenyl)((trans-4-(5-methoxy-6-methylpyridin-2-yl)cyclohexyl)methyl)carbamoyl)cyclohexyl 3-(hydroxymethyl)azetidine-1-carboxylate]",≤ 250
7,"CCN1CCN(C(=O)O[C@H]2CC[C@H](C(=O)N(C[C@H]3CC[C@H](c4ccc(OC)c(C)n4)CC3)c3cc(-c4coc(C5CC5)n4)ccn3)CC2)CC1 [Compound 6.81, trans-4-((4-(2-Cyclopropyloxazol-4-yl)pyridine-2-yl)((trans-4-(5-methoxy-6-methylpyridin-2-yl)cyclohexyl)methyl)carbamoyl)cyclohexyl 4-ethylpiperazine-1-carboxylate]",≤ 250
8,"COc1ccc([C@H]2CC[C@H](CN(c3cc(-c4coc(C5CC5)n4)ccn3)C(=O)[C@H]3CC[C@H](OC(=O)N4CC(CS(C)(=O)=O)C4)CC3)CC2)nc1C [Compound 7.101, trans-4-((4-(2-Cyclopropyloxazol-4-yl)pyridine-2-yl)((trans-4-(5-methoxy-6-methylpyridin-2-yl)cyclohexyl)methyl)carbamoyl)cyclohexyl 3-((methylsulfonyl)methyl)azetidine-1-carboxylate]",≤ 250
9,"COc1ccc([C@H]2CC[C@H](CN(c3cc(-c4cnn(C5CC5)c4)ccn3)C(=O)[C@H]3CC[C@H](OC(=O)N4CC(O)C4)CC3)CC2)cc1C#N [Compound 7.21, trans-4-(((trans-4-(3-Cyano-4-methoxyphenyl)cyclohexyl)methyl)(4-(1-cyclopropyl-1H-pyrazol-4-yl)pyridin-2-yl)carbamoyl)cyclohexyl 3-hydroxyazetidine-1-carboxylate]",≤ 250
10,"COc1ccc([C@H]2CC[C@H](CN(c3cccc(-c4cnn(C5CC5)c4)c3)C(=O)[C@H]3CC[C@H](OC(=O)NC(CO)CO)CC3)CC2)cc1C [Compound 6.11, trans-4-((3-(1-Cyclopropyl-1H-pyrazol-4-yl)phenyl)((trans-4-(4-methoxy-3-methylphenyl)cyclohexyl)methyl)carbamoyl)cyclohexyl (1,3-dihydroxypropan-2-yl)carbamate]",≤ 250
11,"COc1ccc([C@H]2CC[C@H](CN(c3cc(-c4cnn(C5CC5)c4)ccn3)C(=O)[C@H]3CC[C@H](C(=O)OC)CC3)CC2)nc1C [Compound 18.17, trans-Methyl 4-((4-(1-cyclopropyl-1H-pyrazol-4-yl)pyridin-2-yl)((trans-4-(5-methoxy-6-methylpyridin-2-yl)cyclohexyl)methyl)carbamoyl) cyclohexanecarboxylate]",250 to 1000
12,"COc1ccc([C@H]2CC[C@H](CN(c3cc(-c4cnn(C(C)C)c4)ccn3)C(=O)[C@H]3CC[C@H](OC(=O)N4CC(OC)C4)CC3)CC2)nc1C [Compound 7.55, trans-4-((4-(1-Isopropyl-1H-pyrazol-4-yl)pyridin-2-yl)((trans-4-(5-methoxy-6-methylpyridin-2-yl)cyclohexyl)methyl)carbamoyl)cyclohexyl 3-methoxyazetidine-1-carboxylate]",≤ 250
13,"COc1ccc([C@H]2CC[C@H](CN(c3cccc(-c4cnn(C5CC5)c4)c3)C(=O)[C@H]3CC[C@H](OC(=O)N(C)C)CC3)CC2)cc1C [Compound 5.22, trans-4-((3-(1-Cyclopropyl-1H-pyrazol-4-yl)phenyl)((trans-4-(4-methoxy-3-methylphenyl)cyclohexyl)methyl)carbamoyl)cyclohexyl dimethylcarbamate]",≤ 250
14,"COc1ccc([C@H]2CC[C@H](CN(c3cc(-c4coc(C5CC5)n4)ccn3)C(=O)[C@H]3CC[C@H](OC(=O)N4CC(OCCO)C4)CC3)CC2)nc1C [Compound 6.76, trans-4-((4-(2-Cyclopropyloxazol-4-yl)pyridine-2-yl)((trans-4-(5-methoxy-6-methylpyridin-2-yl)cyclohexyl)methyl)carbamoyl)cyclohexyl 3-(2-hydroxyethoxy)azetidine-1-carboxylate]",≤ 250

# Now from value to compound:
row,EC50 [nM],Structure (SMILES)
1,≤ 250,"COc1ccc([C@H]2CC[C@H](CN(c3cccc(-c4cnc(C5CC5)s4)c3)C(=O)[C@H]3CC[C@H](NC(=O)C[S+](C)[O-])CC3)CC2)cc1C (stereo partly drawn) [Compound 31.11, trans-N-(3-(2-Cyclopropylthiazol-5-yl)phenyl)-N-((trans-4-(4-methoxy-3-methylphenyl)cyclohexyl)methyl)-4-(2-(methylsulfinyl)acetamido) cyclohexanecarboxamide]"
2,≤ 250,"COCCNC(=O)[C@H]1CC[C@H](C(=O)N(C[C@H]2CC[C@H](c3ccc(OC)c(C)c3)CC2)c2cccc(-c3cnc(OC)s3)c2)CC1 [Compound 24.04, trans-N^1-((trans-4-(4-Methoxy-3-methylphenyl)cyclohexyl)methyl)-N^4-(2-methoxyethyl)-N^1-(3-(2-methoxythiazol-5-yl)phenyl) cyclohexane-1,4-dicarboxamide]"
3,≤ 250,"COc1ccc([C@H]2CC[C@H](CN(c3cccc(-c4cnn(C5CC5)c4)c3)C(=O)[C@H]3CC[C@H](CNS(C)(=O)=O)CC3)CC2)cc1C [Compound 26.15, trans-N-(3-(1-Cyclopropyl-1H-pyrazol-4-yl)phenyl)-N-((trans-4-(4-methoxy-3-methylphenyl)cyclohexyl)methyl)-4-(methylsulfonamidomethyl) cyclohexanecarboxamide]"
4,≤ 250,"COc1ncc(-c2cccc(N(C[C@H]3CC[C@H](c4ccc(OC)c(C)c4)CC3)C(=O)[C@H]3CC[C@H](C(=O)N(C)C)CC3)c2)s1 [Compound 24.02, trans-N^1-((trans-4-(4-Methoxy-3-methylphenyl)cyclohexyl)methyl)-N^1-(3-(2-methoxythiazol-5-yl)phenyl)-N^4,N^4-dimethylcyclohexane-1,4-dicarboxamide]"
5,≤ 250,"COc1ccc([C@H]2CC[C@H](CN(c3cccc(-c4coc(C5CC5)n4)c3)C(=O)[C@H]3CC[C@H](NC(=O)CO)CC3)CC2)cc1C [Compound 26.16, trans-N-(3-(2-Cyclopropyloxazol-4-yl)phenyl)-4-(2-hydroxyacetamido)-N-((trans-4-(4-methoxy-3-methylphenyl)cyclohexyl)methyl) cyclohexanecarboxamide]"
